Entries after “also recorded” stand apart in the source; their conditions may differ.
Assays:
[1] = test system: children with genetically-confirmed Leigh syndrome; assay: Safety and tolerability in the Leigh syndrome trial; type: in vivo, human
Method: There were three serious adverse events due to intercurrent illness during the three month trial (two cases of bronchitis and one case of salmonellosis, all resolved). […] All recorded values were within the normal range for the clinical laboratories used for the analysis.
All subjects received 100 mg of alpha-tocotrienol quinone three times daily orally or via gastrostomy tube. Total treatment length was three months, with an extension phase for children who completed the initial treatment period. All adverse and serious adverse events were tracked in the trial database. In addition, all held doses due to intolerance of alpha-tocotrienol quinone or any other reason were also recorded.

total serum thiol levels = assay: Total thiols in serum/plasma (DTNB, spectrophotometric); type: in vivo, human; conditions: three-month time point; p=0.008
Method: (§1) Intracellular reduced glutathione (GSH) serves as the cell's principal endogenous antioxidant. Leigh syndrome and other mitochondrial diseases are associated with decreased GSH levels as the high level of oxidative stress and free oxygen radicals deplete cellular GSH reserves. In order to verify alpha-tocotrienol quinone mechanism of action and to correlate this action with clinical benefit, intracellular (lymphocyte) glutathione levels were measured in all patients. The ratio of recued-to-oxidized glutathione and reduced glutathione to total glutathione levels were calculated to assess the effect of alpha-tocotrienol quinone on repleting reduced intracellular glutathione. In addition, total serum thiol levels were measured prior to and following initiation of treatment. Plasma creatine levels—an exploratory biomarker for mitochondrial disease—was also obtained.
Total thiols were determined in plasma following the method reported by M.-L. Hu (Methods Enzymol. 233, 380-385 (1994)). 50 μl plasma was mixed with 1 ml of the Tris-EDTA buffer and the absorbance at 412 nm was measured. Then, 20 μl of 10 mM DTNB were added. After 15 min incubation at room temperature, the absorption at 412 nm (ε=13,600 cm^−1M^−1) was measured together with a DTNB blank.

[2] = Plasma trough drug concentration in Leigh syndrome subjects; type: in vivo; conditions: 100 mg three times daily, eight hours post dosing
Method: (§2) The initial clinical dose was selected based on laboratory and human patient pharmacokinetic modeling data. Specifically, a three-compartment model for oral administration was employed that included GI absorption delay, as well as one central and one peripheral compartment. A plasma trough drug concentration was targeted 10-20 fold above the ˜10 nM in vitro EC50 value of alpha-tocotrienol quinone that protected Leigh syndrome (SURF1) primary cells against glutathione depletion-mediated apoptotic cell death. Based on serum values of alpha-tocotrienol quinone obtained in two Leigh syndrome subjects after a single 100 mg dose of alpha-tocotrienol quinone was administered, a clinical dose of 100 mg three times daily was calculated and selected as the initial dose. […] This was consistent with the in vitro target dose and was confirmed in multiple pediatric subjects with inherited mitochondrial disease (Enns, G. M., et al., Mol. Genet. Metab. 105, 91-102 (2012); Blankenberg, F., et al., Ann. Neurol. 70, S148-S148 (2011)). This dose was also safely below the preclinical no observed adverse effect level (NOAEL).

[3] = test system: Leigh syndrome (SURF1) primary cells; assay: In vitro protection of patient primary cells against glutathione depletion-mediated apoptotic cell death; type: cell-based, human
Method: as §2

plasma creatine = assay: Plasma creatine levels (exploratory biomarker for mitochondrial disease); type: in vivo, human; conditions: p=0.15
Method: as §1

[4] = test system: intracellular (lymphocyte) glutathione; assay: HPLC determination of lymphocyte glutathione forms (GSH, GS-Pro, GSSG) in treated Leigh syndrome patients; type: in vivo, human
Method: The determination of the different forms of GSH obtained from lymphocytes can be performed in a manner similar to the method previously reported by Pastore et al. (Clin. Chem. (Washington, D.C.) 44, 825-832 (1998)). Briefly, 30 μl of 4 M NaBH4, 20 μl of 2 mM EDTA/DTT, 10 μl of 1-octanol and 20 μl of 1.8 M HCl are placed in the derivatization vial containing 30 μl of sample. After the mixture is incubated for three min, 100 μl of 1.5 M N-ethylmorpholine buffer, pH 8.0, 400 μl of distilled water, and 20 μl of 25 mM bromobimane are added. After an additional three-min incubation, 40 μl of acetic acid are added and 20 μl (for free GSH) or 80 μl (for GSSG and GS-Pro) of this mixture are injected into the column. The thiol derivatives are quantified by HPLC (Agilent Technologies 1100 HPLC with a fluorescence detector-excitation at 390 nm and an emission at 478 nm). The analytes are separated for detection using a C18 column (Hypersil ODS; 150×4.6 mm, 3 micron) at 1.5 ml/min using an aqueous phase of aqueous 30 mM ammonium nitrate and 40 mM ammonium formate at pH 3.6 with an increasing acetonitrile gradient. HPLC determinations of the various forms of GSH are carried out on lymphocytes sonicated three times for two sec in 0.1 ml of 0.1 M potassium-phosphate buffer, pH 7.2 using a Model VC 130 Vibra Cell™ ultrasonic processor. For free GSH determinations, 100 μl of 12% sulfosalicylic acid are added to 50 μl of cells lysate, and analytes content on the acid-soluble fraction are determined. The protein pellet is dissolved in 150 μl of 0.1 N NaOH, and protein bound glutathione (GS-Pro) determined. For GSSG determination, cells are sonicated in the presence of 5 mM N-ethylmaleimide (NEM); 100 μl of 12% sulfosalicylic acid are added to 50 μl homogenates, and analytes content on the acid-soluble fraction are determined. Protein concentrations are quantified by BCA-protein assay.
as §1
For lymphocytes and erythrocyte isolation from whole blood, venous blood samples were layered on the top of a discontinuous gradient consisting of 3 ml of Hystopaque®-1119 and 3 mL of Hystopaque®-1077. Gradients were centrifuged at 750 g for 40 min at 4° C. The lymphocyte layer was transferred to a 15 ml centrifuge tube, diluted to a volume of 10 ml with 0.9% NaCl and centrifuged at 750 g for 40 min. The supernatant was removed and, if necessary, the lysis of erythrocytes was performed by adding 2 ml H2O. After 90 s, 2 ml of 1.8% NaCl solution was added and cells washed four times with 0.9% NaCl. The pellet of lymphocytes was centrifuged at 750 g for 10 min and stored at −80° C. until HPLC analysis.
The determination of the different forms of GSH obtained from lymphocytes was performed, with little modification to a method previously reported (Pastore, A., et al. Clin. Chem. (Washington, D.C.) 44, 825-832 (1998)). Briefly, 30 μl of 4 M NaBH4, 20 μl of 2 mM EDTA/DTT, 10 μl of 1-octanol and 20 μl of 1.8 M HCl were placed in the derivatization vial containing 30 μl of sample. […]

[5] = test system: children with genetically-confirmed Leigh syndrome; assay: Phase 2 single arm subject-controlled trial in children with Leigh syndrome: clinical outcome scales (NPMDS, GMFM, PedsQL, MD-CRS); type: in vivo, human
[6] = LS patients after six-months treatment, n = 10
[7] = three months, 100 mg orally three times daily, p=0.01

With `CC(C)=CCC/C(C)=C/CC/C(C)=C/CC[C@@](C)(O)CCC1=C(C)C(=O)C(C)=C(C)C1=O` [alpha-tocotrienol quinone] the “clinical chemistry laboratory parameters incl. liver and kidney function tests and coagulation parameters” value ([1]; three month trial) was “no abnormalities”, the “other reported adverse conditions” value ([1]; three month trial) was “mild sleepiness and hypotonia” and the “serious adverse events due to intercurrent illness” value ([1]; three month trial, two bronchitis, one salmonellosis, all resolved) was “three”. For the same compound, the “drug related adverse events” value ([1]; three months, 100 mg three times daily) was “No drug related adverse events; also recorded: not associated with any drug-induced adverse events”, the “total serum thiol levels, mean change” value (total serum thiol levels) was 0.14 and the average trough concentration [2] was roughly 200 nM. The EC50 [3] was roughly 10 nM, the “plasma creatine, overall average decrease” value (plasma creatine) was 20.2 points and the “GS-Pro, lymphocytes, median” value [4, 6] was 0.57 nmol/mg proteins. For the same compound, the “GSH, lymphocytes, median” value [4, 6] was 28.92 nmol/mg proteins, the “GSSG, lymphocytes, median” value [4, 6] was 1.47 nmol/mg proteins and the “Tot GSH, lymphocytes, median” value [4, 6] was 32.47 nmol/mg proteins. For the same compound, the “overall glutathione charge (GSSG/GSH and GSSG/total glutathione ratios), FIG. 2” value ([4]; all patients, over treatment time) was “rapid normalization”, the “oxidized-to-reduced glutathione levels after treatment” value ([4]; decrease from baseline ratio mean 3.1+/-2.1, p=0.005) was 0.25 and the “time to changes in reduced glutathione levels and oxidized-to-reduced glutathione ratios” value ([4]; in most of the patients) was no more than 4 weeks. For the same compound, the “time to biochemical response (glutathione charge)” value ([4]; in several subjects, preceding clinical response) was “within two weeks”, the “reduced glutathione in isolated lymphocytes after treatment” value ([4]; increase from 8.5 at baseline, p=0.002) was 25.1 nmol/mg cell protein and the “oxidized glutathione after treatment” value ([4]; reduction, p=0.005) was 0.25 nmol/mg cell protein. For the same compound, the clinical disease progression ([5]; all children, three months, regardless of age, genotype, severity) was “arrest of disease progression and reversal”, the “NPMDS score, patient 1, earlier value” ([5]; patient 1, before continued treatment to six months) was 23.5 and the “NPMDS score, patient 1, later value” ([5]; patient 1, treated for six months) was 21.1. The “GMFM score, patient 2” value ([5]; patient 2, at six months, increased from 7.6) was 19.8, the “NPMDS score, patient 2, earlier value” ([5]; patient 2, before continued treatment to six months) was 54 and the “change in GMFM score, patient 2” value ([5]; patient 2, following three months of treatment) was “no change”. For the same compound, the “NPMDS score, patient 2, later value” ([5]; patient 2, treated for six months) was 46, the “NPMDS score, patient 3, earlier value” ([5]; patient 3, before continued treatment to six months) was 27.8 and the “NPMDS score, patient 3, later value” ([5]; patient 3, treated for six months) was 25.7. For the same compound, the “change in GMFM score, patient 7” value ([5]; patient 7, score 97.5 prior to treatment (maximum 100)) was “did not change”, the “clinical outcomes (NPMDS, neuromuscular function, health related quality of life, dystonia and spasticity), FIG. 1” value ([5]; prior to vs following three months of treatment) was “significant improvement” and the “average improvement in total NPMDS score from baseline” value ([5]; three months) was 25%. The “NPMDS sections 1-3 (organ system function), mean improvement” value ([5]; three months, 100 mg orally three times daily, p=0.005) was 7.1, the “GMFM, mean improvement” value [5, 7] was 8.9 and the “NPMDS section 4 (quality of life), average improvement” value [5, 7] was 4.6. For the same compound, the “PedsQL Neuromuscular Module, mean improvement” value ([5]; three months, 100 mg orally three times daily, p=0.03) was 14.6, the “Movement Disorder-Childhood Rating Scale (MD-CRS), improvement in each child” value ([5]; three months, secondary endpoint) was “one class” and the “time to clinical response” value ([5]; universal and durable) was “within eight weeks”.
